Reference: patent US7695971B2, “Use of non-absorbable fat in determining dietary fat absorption” (Children's Hospital Medical Center, priority 2003, dated 2010)
Blank lines part the entries; values can stand above or below the compound they belong to.

Legend:
[1] = Fat absorption by sucrose behenate marker method, mice (Example 1)
Method: (§1) These two diets further have the following composition by weight: about 16% fat, 45% non-fat dry milk, and 39% sucrose, providing 30:15:55 fat:protein:carbohydrate energy %. Non-fat dry milk comprised 60% carbohydrate and 40% protein by weight. The fat composition (% by weight) is given for each diet as listed below. […] Aliquots of approximately 10 microliters of each fat blend are set aside and later analyzed for fatty acid analysis. The fat blends are added to non-fat dry milk and sucrose and mixed with an electric mixer for 5 minutes. The prepared diets are placed in a capped glass bottle and stored at 4° C. until used.
(§2) The feeding and fecal collection regimen for rodents includes two days of test diet and three days of fecal collection. Prior to the study, the animals eat commercial chow ad libitum. Test diets, also fed ad libitum, replace chow on days 0 and 1, and chow is returned to the animals on day 2. Fecal collections are made on days 1, 2, and 3. The feeding and feces collection regimen is illustrated in the following table A:
(§3) In general sample sizes of 10-20 milligrams provide a 5 to 10-fold excess of behenate in terms of the sensitivity of the gas chromatograph. The weighed fecal sample is ground into small particles with a spatula and placed in a 20 mL vial for saponification, methylation, and extraction. The method for saponification and methylation of fatty acids for gas chromatographic analysis can be that reported by Mecalfe (Metcalfe, L D et al. (1966). Anal. Chem. 38: 514-515). Four mL of 0.5N methanolic sodium hydroxide are added to the vial, which is then heated in a water bath at ˜80° C. for 5 mins. After a brief cooling period, 3 mL of BF3 in methanol (14% borontrifluoride and 86% methanol) are added to methylate the sample. After another five minutes of heating in the waterbath, the sample vial is allowed to cool to allow handling. Two mL of a saturated solution of sodium chloride and 10 mL of hexane are added to the vial. The samples are then mixed with a vortex mixer for one minute. Centrifugation can be used (2500 rpm at 1 min) to expedite the process of separation into two layers. The hexane fraction is transferred by pipette into a 20 mL vial that contains ˜10 mg of sodium sulfate to dry the sample. The hexane solution is removed for gas chromatograph analysis. An injection volume of 1 μL of the 10 mL of hexane is analyzed.
Samples are analyzed with a gas chromatograph (GC) such as a Shimadzu GC-17A equipped with autosampler and autoinjector. Analysis of fatty acid methyl esters is then based on areas calculated with Shimadzu Class VP 4.3 software. An example of an appropriate column is one that can be obtained from J&W Scientific, DB-23 (123-2332): 30 m (length), I.D. (mm) 0.32 widebore, film thickness of […], although any suitable column can be substituted. Fatty acid identification is made by the use of comparison of retention times with those of authenticated standards. The conditions for the GC analysis in the present example are: Column temperature ramping by holding at 120° C. for one minute followed by an increase of 5° C./min from 120-240° C. The temperature of the injector and flame ionization detector is 250° C. A split (8:1) injection mode is used. The carrier gas is helium with a column flow rate of 2.5 mL/min. Under these conditions, the retention time of methyl behenate is 18.7 min.
The absorption of fatty acids is calculated with formula II:
[formula] • where Fd=sum of the masses of all dietary fatty acids (or that of an individual fatty acid) other than behenic acid, • Bd=mass of dietary behenic acid, • Ff=sum of the mass of all fecal fatty acids (or that of an individual fatty acid) other than behenic acid, and • Bf=mass of fecal behenic acid.

[2] = Fat absorption by sucrose behenate marker method, rats (Example 2)
Method: as §1, §2, §3
Samples are analyzed with a gas chromatograph (GC) such as a Shimadzu GC-17A equipped with autosampler and autoinjector. Analysis of fatty acid methyl esters is then based on areas calculated with Shimadzu Class VP 4.3 software. […]
The absorption of fatty acids is calculated with formula II: […]

- Percent in Feces (Mean ± SEM) ([1]; male, C57B1/6, mouse, in vivo): 18.3 ± 0.5%
- absorption of individual fatty acid from safflower oil ([2]; rat, in vivo): 90.1±0.3%
Structure (SMILES): CCCCCCCCCCCCCCCC(=O)O [Palmitic acid]

- Percent in Feces (Mean ± SEM) ([1]; male, C57B1/6, mouse, in vivo): 5.28 ± 0.3%
- absorption of individual fatty acid ([1]; male, C57B1/6, mouse, in vivo): 77.3±2.1%
- absorption of individual fatty acid from safflower oil ([2]; rat, in vivo): 75.9±0.3%
Structure (SMILES): CCCCCCCCCCCCCCCCCC(=O)O [Stearic acid]

The next lines start with the compound.

Structure (SMILES): CCCCC/C=C\C/C=C\CCCCCCCC(=O)O [linoleic acid]
- Percent in Feces (Mean ± SEM) ([1]; male, C57B1/6, mouse, in vivo): 27.7 ± .6%
- absorption of individual fatty acid from safflower oil (in words) ([1]; mouse, in vivo): nearly complete
- absorption of individual fatty acid from safflower oil (in words) ([2]; rat, in vivo): essentially complete

Structure (SMILES): CCCCCCCC/C=C\CCCCCCCC(=O)O [oleic]
- Percent in Feces (Mean ± SEM) ([1]; fecal samples from mice ingesting Safflower Oil and Olestra Diet): 24.7 ± 01.0%
- absorption of individual fatty acid from safflower oil (in words) ([1]; mice, Safflower Oil Diet): nearly complete
- absorption of individual fatty acid from safflower oil ([2]; rats, fecal collections of days 2 and 3): 90.9±0.5%

Structure (SMILES): CCCCCCCCCCCCCCCCCCCCCC(=O)O [behenic acid, reference compound]
- behenic acid in feces, of the total fatty acids ([1]; mice fed Safflower Oil Diet): 33.5-66.4%
- behenic acid in feces, of the fatty acids ([1]; mice fed Safflower Oil and Olestra Diet): 12.5-19.3%
